In experiment [1] the test system is DHX9. As to the kind of experiment: qPCR (SYBR Green) of circular and linear RNAs in HCT116 cells after DHX9 inhibition. It is filed as cell-based. The settings on record: 72 hours, FIG. 1. On the procedure:
This experiment was conducted to evaluate circular and linear formats of different mRNA in HCT116 cells after treatment with DHX9 inhibitors by Quantitative Polymerase Chain Reaction (qPCR).
HCT116 cells were obtained from ATCC (CCL-247) and were grown and assayed in McCoy's 5a growth media supplemented with 10% FBS.
The cells were plated at pre-determined cell densities in 384-well cell culture plates and incubated overnight in 37° C. at 5% CO2. In a separate plate, reference and test compounds were prepared in DMSO stock solution and serially diluted 3-fold for 10 points. Compound 7 (0.1% final DMSO concentration) was transferred to the cell plate in designated wells, and incubated 37° C. at 5% CO2 for 72 hours.
RNA was extracted from the cells using the SYBR Green Fast Advanced Cell-to-CT kit according to manufacturer's (Invitrogen) protocol, and cDNA was reverse transcribed using the High Capacity RNA-to-cDNA Kit according to the manufacturer's (Invitrogen) protocol. Using RT^2 SYBR Green ROX qPCR Mastermix (Invitrogen) and thermal cycler conditions for the QuantStudio Thermocycler, qPCR was carried out using the below custom primer sequences obtained at Integrated DNA Technologies (IDT):
Data analysis was performed by using the QuantStudio Thermocycler software to determine threshold Ct values. ΔCt for circRNA or linRNA is calculated by normalizing the target gene Ct to the GAPDH housekeeping gene Ct for each sample. The inhibition activity is calculated by the following formula, whereas: […]
ΔCts: Mean of Ct(target gene)−Mean of Ct(GAPDH) for each sample
ΔCtc: Mean of Ct(target gene)−Mean of Ct(GAPDH) for DMSO control.
On the technique in general: Real-time PCR tracks product formation cycle by cycle.

The test system of experiment [2] is human PBMCs. As to the kind of experiment: proliferation of human PBMCs (Cell-Titer Glo 2.0). It is filed as cell-based. The settings on record: Compound 1 0.01 μM to 10 μM, 10 days; FIG. 8B. On the procedure: Next, the proliferation of PMBCs was examined following treatment with DHX9 inhibitor using the following assay.
Human PBMCs were thawed from a frozen cryotube in a 37° C. water bath and transferred to a flask with medium X-Vivo 15 supplemented with 5% Fetal Bovine Serum (FBS), 1% PenStrep, and 1% Glutamax. Flasks were incubated at 37 C for 30 minutes. PBMCs were harvested from flask and counted. PBMCs were diluted in medium and added to 96 well plates at 100,000 PBMCs per well. A stimulus mixture containing IL-15 at 1 ng/well, IL-21 at 5 ng/well, and CD40L at 5 ng/well was added to each well. Test compounds were prepared in DMSO stock solution and serially diluted. Compound (0.1% final DMSO concentration) was added to each well. DMSO was used as a negative control (high control, HC) and staurosporine was used a positive control (low control, LC). Plates were incubated at 37 C for 0, 2, 4, 6, 8, 10 days. Every other day, medium was replenished with stimulus and diluted compounds.
At each CTG time point, plate was removed from incubator and Cell-Titer Glo 2.0 reagent was added to each well according to manufacturer's (Promega) protocol and detected on an Envision. The inhibition activity was calculated following the formula below:
% Inhibition=100×(ReadoutHC−ReadoutSample)/(ReadoutHC−ReadoutLC)
PBMCs were exposed to Compound 1 at concentrations ranging from 0.01 μM to 10 μM for 10 days. […]

Experimental findings from patent US20260297679A1, “ASSAYS FOR MONITORING INHIBITION OF RNA HELICASE DHX9” (ACCENT THERAPEUTICS, INC., priority 2023, published 2026) are described below.

For `CS(=O)(=O)Nc1cccc(NC(=O)c2cc(Br)cs2)c1` [Compound 7, 4-bromo-N-(3-methanesulfonamidophenyl)thiophene-2-carboxamide], in experiment [1], the “induction of AKR1A1 circRNA (Alu-mediated)” value is listed as “induced”, the “induction of BRIP1 circRNA (Alu-mediated)” value is recorded as “induced”, the “induction of DKC1 circRNA (Alu-mediated)” value is reported as “induced” and the “induction of SETD3 circRNA (non-Alu-mediated)” value is “no induction of SETD3 cirRNA was observed”.

Consider `CN[C@@H]1C[C@H]2O[C@@](C)([C@@H]1OC)n1c3ccccc3c3c4c(c5c6ccccc6n2c5c31)C(=O)NC4` [staustoporine, staurosporine, reference compound], for which, in experiment [2], the “proliferation of PBMCs” value is “inhibited proliferation of PBMCs”.
